This note sets out measurements from patent publication US20250345277A1, “Ionizable Liposome, Preparation Thereof, and Application Thereof in Gene Delivery” (MAXIRNA (ZHEJIANG) TECHNOLOGY CO. LTD., priority 2021, published 2025).

Series [1] can be described thus: Size and polydispersity index PDI of lipid nanoparticles (Malvern Zetasizer Nano ZS). The series is classed as physicochemical. Particulars: LNP ionizable lipid/DOPE/cholesterol/DSPE-PEG2000 35/16/46.5/2.5 mol% encapsulating EGFP mRNA; for Particle Size: in nm (unit assumed). On the procedure:
(§1) The ionizable lipid compound of Example 1 was dissolved in ethanol with DOPE, cholesterol and DSPE-PEG2000 (all purchased from AVT (Shanghai) Pharmaceutical Technology Co., Ltd.) at a molar ratio of 35:16:46.5:2.5 to prepare ethanol lipid solution, and enhanced green fluorescent protein (EGFP) mRNAs (Shanghai Maximna Pharmaceutical Engineering Co., Ltd., JN-4201) were diluted in 20 mM citrate buffer (pH=6.1) to obtain mRNA aqueous solution. Ethanol lipid solution and mRNA aqueous solution were mixed at a volume ratio of 1:3 by using a microfluidic device (Micro&Nano (Shanghai) Instrument Technology Co., Ltd., model: INano™ML), LNPs were prepared with a weight ratio of approximately 10:1 between total lipids and mRNAs. The medium was replaced by ultrafiltration, ethanol was removed and volumed with DPBS. Finally, the lipid nanoparticles were filtered through a 0.2 μm sterile filter to obtain a LNP formulation encapsulating eGFP mRNA using ionizable lipid/DOPE/cholesterol/DSPE-PEG2000 (35/16/46.5/2.5 mol %), the concentration of mRNAs being 0.002 mg/mL-0.5 mg/mL.
Using Malvern Zetasizer Nano ZS (Malvern UK), the size and polydispersity index PDI of lipid nanoparticles were measured at […].

The next series concerns DC2.4 cells. The series is described as follows: In vitro transfection of DC2.4 cells with EGFP mRNA LNP preparation (flow cytometry). Format: cell-based, mouse. The following applies: DC2.4 cells; for Cell Viability / Positive Rate (EGFP): EGFP mRNA LNP, 200 ng mRNA per well, flow cytometry; for Fluorescence Intensity: EGFP mRNA expression level, normalized based on the sample with the highest fluorescence intensity. An excerpt: The description is based on peripheral blood mononuclear cells PBMC (Shanghai Oribiotech Co., Ltd.), human peripheral blood leukemia T cell Jurkat (ATCC), tumor infiltrating lymphocyte TIL (isolated from resected tumor tissue of a liver cancer patient, the preparation method refers to CN114763530A), mouse bone marrow-derived dendritic cells DC2.4 (Cell Bank of the Chinese Academy of Sciences), and Chinese hamster ovary cells CHO (ATCC) were used as verified cell lines for liposome transfection. PBMC, Jurkat, and TIL cells grew in suspension, while DC2.4 and CHO cells grew by adherent culture. All the operation steps of cell culture must strictly abide by the prescribed procedures, and sterile reagents is used to perform aseptic operations under a sterile workbench. The main steps are as follows: • 1) Cell recovery: the preserved cell cryopreservation solution was taken out of the −80° C. refrigerator, and was immediately put in a 37° C. water bath for rapid and continuous shaking, and was completely melted within one minute. Fresh medium was added to the 15 mL centrifuge tube in advance, and the cell solution was added to the centrifuge tube in a biological safety cabinet. A centrifuge tube of the same quality was taken and placed symmetrically in a centrifuge, centrifuged at a low speed at 1200 rpm for 5 min. After centrifugation, the supernatant was removed, and an appropriate amount of medium was slowly added along the tube wall. After the cells were evenly dispersed by blowing gently, the cell suspension was pipette and added to the culture bottle prepared in advance. The state and distribution of the cells in the early stage of recovery were observed under a microscope. The culture bottle was placed in a 5% CO2 incubator and incubated at 37° C., and the recovery time was recorded. • 2) Cell subculture: Under the microscope, if the cell density in the field of view reaches 80%-90%, the cells can be subcultured. Adherent cells need to be digested with trypsin. In order to avoid the residual serum in the culture medium to reduce the activity of trypsin, DPBS solution was added to wash once after removing the original culture medium. After remove the DPBS solution, trypsin was added to degrade the protein at the junction between cells. This separates the cells for further culture. The cells were gently shaked evenly and put into the incubator for digestion for 2 min. Immediately after the digestion was completed, an appropriate amount of medium was added to the original petri dish to terminate the digestion. Finally, the cells were carefully blowed off using a pipette and blowed until they are evenly dispersed, and then inoculated and subcultured at a certain ratio according to the experimental requirements. […]
• 1) DC2.4 cells recovery: the frozen DC2.4 cells were taken out from the −80° C. refrigerator, put in a 37° C. water bath to quickly thaw the cells, added to the preheated medium after thawing, centrifuged at 1200 rpm for 5 min, the supernatant was discarded, and an appropriate amount of DMEM medium with 10% FBS was added to resuspend the recovered DC2.4, and placed in a 5% CO2 incubator at 37° C. for activation and culture. • 2) According to the experimental arrangement, DC2.4 cells were plated on a 24-well plate one day in advance for cell transfection. Through cell counting, the number of cells and cell viability were recorded, the cell suspension were taken at 2×10^5 cells per well, then a certain volume of DMEM medium containing 10% FBS was added and mixed evenly, 1 mL of mixture was added to each well for subsequent transfection experiment. • 3) After 24 hours, the medium was gently removed 30 minutes in advance by a pipette, 1 mL DPBS was added to each well for washing and then removed, then 300 μL serum-free Opti-MEM medium was added to each well for subsequent transfection experiments.
Subsequent steps are the same as the transfection protocol for PBMC cells. […]
A general note: A flow cytometer gives signals particle by particle.

Series [2] is described as follows: Entrapment efficiency of LNP preparation encapsulating EGFP mRNA. The series is classed as physicochemical. The following applies: LNP ionizable lipid/DOPE/cholesterol/DSPE-PEG2000 35/16/46.5/2.5 mol% encapsulating EGFP mRNA. The method, then:
as §1, with “mg/mL. […]” for “mg/mL.”

For `CCCCCCCCCCC(O)CN(CCN(CCN1CCN(C)CC1)CCN(CC(O)CCCCCCCCCC)CC(O)CCCCCCCCCC)CC(O)CCCCCCCCCC` (stereo not drawn) [E-C12], in series [1], the PDI is 0.133 and the “Particle Size” value is 96.9. In addition, in the series with DC2.4 cells, the “Cell Viability” value was found to be 84.8%, the “Positive Rate (EGFP)” value was 56.4% and the “Fluorescence Intensity” value worked out at 0.69. Further, the “Entrapment Efficiency” value in series [2] stood at 95.02%.
Regarding `CCCCCCCCCCCCCCC(O)CN(CCN(CCN1CCN(C)CC1)CCN(CC(O)CCCCCCCCCCCCCC)CC(O)CCCCCCCCCCCCCC)CC(O)CCCCCCCCCCCCCC` (stereo not drawn) [E-C16], in series [1], the PDI was found to be 0.107 and the “Particle Size” value was 76.9. Besides, in the series with DC2.4 cells, the “Cell Viability” value was determined as 94.4%, the “Positive Rate (EGFP)” value was determined as 59.9% and the “Fluorescence Intensity” value is 0.71. Further, in series [2], the “Entrapment Efficiency” value is given as 91.51%.
With `CCCCCCCCCCC(O)CN(CCOCCN(CCOCCN(CC(O)CCCCCCCCCC)CC(O)CCCCCCCCCC)CCN1CCN(C)CC1)CC(O)CCCCCCCCCC` (stereo not drawn) [F-C12], in series [1], the PDI was 0.133 and the “Particle Size” value was found to be 77.7. In the series on DC2.4 cells, the “Cell Viability” value is recorded as 87.1%, the “Positive Rate (EGFP)” value was found to be 63.9% and the “Fluorescence Intensity” value was 0.28. The “Entrapment Efficiency” value in series [2] is listed as 92.31%.
Turning to `CCCCCCCCCCCCCCC(O)CN(CCOCCN(CCOCCN(CC(O)CCCCCCCCCCCCCC)CC(O)CCCCCCCCCCCCCC)CCN1CCN(C)CC1)CC(O)CCCCCCCCCCCCCC` (stereo not drawn) [F-C16], in series [1], the PDI was 0.099 and the “Particle Size” value was found to be 91.9. Besides, in the series with DC2.4 cells, the “Cell Viability” value is reported as 96.8%, the “Positive Rate (EGFP)” value is 60.3% and the “Fluorescence Intensity” value came to 0.17. Moreover, the “Entrapment Efficiency” value in series [2] was determined as 92.39%.
On to `CCCCCCCCCCCCCCCCC(O)CN(CCOCCN(CCOCCN(CC(O)CCCCCCCCCCCCCCCC)CC(O)CCCCCCCCCCCCCCCC)CCN1CCN(C)CC1)CC(O)CCCCCCCCCCCCCCCC` (stereo not drawn) [F-C18], for which, in series [1], the PDI stood at 0.081 and the “Particle Size” value was 77.2. Moreover, in the series with DC2.4 cells, the “Cell Viability” value worked out at 93.5%, the “Positive Rate (EGFP)” value is 61.5% and the “Fluorescence Intensity” value worked out at 0.67. Also, in series [2], the “Entrapment Efficiency” value came out at 80.61%.
As to `CCCCCCCCCCC(O)CN(CCOCCOCCN(CCOCCOCCN(CC(O)CCCCCCCCCC)CC(O)CCCCCCCCCC)CCN1CCN(C)CC1)CC(O)CCCCCCCCCC` (stereo not drawn) [G-C12], in series [1], the PDI is reported as 0.172 and the “Particle Size” value is listed as 89.3. In addition, in the series with DC2.4 cells, the “Cell Viability” value is given as 92.9%, the “Positive Rate (EGFP)” value is reported as 83.1% and the “Fluorescence Intensity” value was 0.29. The “Entrapment Efficiency” value in series [2] was determined as 89.95%.
As for `CCCCCCCCCCCCCCC(O)CN(CCOCCOCCN(CCOCCOCCN(CC(O)CCCCCCCCCCCCCC)CC(O)CCCCCCCCCCCCCC)CCN1CCN(C)CC1)CC(O)CCCCCCCCCCCCCC` (stereo not drawn) [G-C16], in series [1], the PDI amounted to 0.102 and the “Particle Size” value is reported as 78.2. In addition, in the series with DC2.4 cells, the “Cell Viability” value was 94.5%, the “Positive Rate (EGFP)” value was determined as 79.6% and the “Fluorescence Intensity” value was 0.54. Moreover, the “Entrapment Efficiency” value in series [2] was 85.40%.
Consider `CCCCCCCCCCCCCCCCC(O)CN(CCOCCOCCN(CCOCCOCCN(CC(O)CCCCCCCCCCCCCCCC)CC(O)CCCCCCCCCCCCCCCC)CCN1CCN(C)CC1)CC(O)CCCCCCCCCCCCCCCC` (stereo not drawn) [G-C18], for which, in series [1], the PDI is listed as 0.195 and the “Particle Size” value is given as 99.8. Besides, in the series on DC2.4 cells, the “Cell Viability” value was found to be 95.2%, the “Positive Rate (EGFP)” value was 63.9% and the “Fluorescence Intensity” value is given as 0.63. In addition, the “Entrapment Efficiency” value in series [2] is given as 80.79%.
Regarding `CCCCCCCCCCC(O)CN(CCOCCOCCOCCN(CCOCCOCCOCCN(CC(O)CCCCCCCCCC)CC(O)CCCCCCCCCC)CCN1CCN(C)CC1)CC(O)CCCCCCCCCC` (stereo not drawn) [H-C12], in series [1], the PDI was 0.136 and the “Particle Size” value worked out at 95.9. In the series with DC2.4 cells, the “Cell Viability” value is listed as 86.0%, the “Positive Rate (EGFP)” value worked out at 74.3% and the “Fluorescence Intensity” value came to 0.78. Besides, the “Entrapment Efficiency” value in series [2] stood at 94.13%.
With `CCCCCCCCCCCCCCC(O)CN(CCOCCOCCOCCN(CCOCCOCCOCCN(CC(O)CCCCCCCCCCCCCC)CC(O)CCCCCCCCCCCCCC)CCN1CCN(C)CC1)CC(O)CCCCCCCCCCCCCC` (stereo not drawn) [H-C16], in series [1], the PDI is reported as 0.162 and the “Particle Size” value was found to be 95.5. Also, in the series with DC2.4 cells, the “Cell Viability” value was more than 99.0%, the “Positive Rate (EGFP)” value was 59.0% and the “Fluorescence Intensity” value is on record as 0.77. Besides, the “Entrapment Efficiency” value in series [2] was 86.56%.
Consider `CCCCCCCCCCCCCCCCC(O)CN(CCOCCOCCOCCN(CCOCCOCCOCCN(CC(O)CCCCCCCCCCCCCCCC)CC(O)CCCCCCCCCCCCCCCC)CCN1CCN(C)CC1)CC(O)CCCCCCCCCCCCCCCC` (stereo not drawn) [H-C18], for which, in series [1], the PDI amounted to 0.143 and the “Particle Size” value was determined as 73.8. Moreover, in the series on DC2.4 cells, the “Cell Viability” value was found to be 97.4%, the “Positive Rate (EGFP)” value was 81.9% and the “Fluorescence Intensity” value is recorded as 0.38. In addition, the “Entrapment Efficiency” value in series [2] came out at 80.61%.
For `CCCCCCCCCCC(O)CN(CCN(CCN1CCN(CCO)CC1)CCN(CC(O)CCCCCCCCCC)CC(O)CCCCCCCCCC)CC(O)CCCCCCCCCC` (stereo not drawn) [I-C12], in series [1], the PDI is reported as 0.114 and the “Particle Size” value is 83.8. Also, in the series on DC2.4 cells, the “Cell Viability” value was found to be 98.5%, the “Positive Rate (EGFP)” value is given as 63.9% and the “Fluorescence Intensity” value worked out at 0.05. The “Entrapment Efficiency” value in series [2] worked out at 88.38%.
Regarding `CCCCCCCCCCCCC(O)CN(CCN(CCN1CCN(CCO)CC1)CCN(CC(O)CCCCCCCCCCCC)CC(O)CCCCCCCCCCCC)CC(O)CCCCCCCCCCCC` (stereo not drawn) [I-C14], in series [1], the PDI was found to be 0.180 and the “Particle Size” value was 120.3. Besides, in the series on DC2.4 cells, the “Cell Viability” value was 97.0%, the “Positive Rate (EGFP)” value is reported as 62.7% and the “Fluorescence Intensity” value came to 0.05. Besides, the “Entrapment Efficiency” value in series [2] was found to be 87.59%.
